Laboratory results taken from patent publication US20030212078A1, “Topical administration of pharmacological compositions for non-systemic treatment of pruritus” (priority 2003, published 2003).

Columns and labels:
[1] = test system: patients with pruritus associated with atopic dermatitis; settings: human, in vivo
Method: In another small uncontrolled and unblinded trial, one group of patients with pruritus associated with atopic dermatitis was treated with a spray (aqueous buffered solution of 40 mg/ml hydroxyzine hydrochloride), which was topically applied to an area of the patients' skin affected by atopic dermatitis. The patients were instructed to spray about 0.1 ml (three pump actions of the manually operated spray bottle) of the composition onto an area of about 10 cm^2 affected by symptomatic itching for up to 5 applications per day for a period of two weeks. A second group of group of patients with pruritus associated with atopic dermatitis was treated with a cream (W/O emulsion containing 2% (wt) hydroxyzine hydrochloride), which was topically applied to an area of the patients' skin affected by atopic dermatitis. The patients were instructed to massage a small portion (about 0.2 gram) into an area of about 10 cm^2 affected by symptomatic itching for up to 5 applications per day for a period of two weeks.

[2] = test system: patients with pruritus (neurodermatitis; insect bite); experiment: Small, uncontrolled and unblinded trial of hydroxyzine*HCl skin cream in two patients with pruritus; format: in vivo, human; settings: skin cream comprising 5% (by weight) hydroxyzine*HCl, both patients
Method: In a small, uncontrolled and unblinded trial, two patients with pruritus were treated with a skin cream comprising 5% (by weight) hydroxyzine*HCl. The first patient was diagnosed with neurodermatitis (a non-allergic condition), while the second patient was diagnosed with an insect bite (an allergic condition).

Structure (SMILES)	patients who experienced weight gain of at least 4% ([1]; 2 months)	time to positive result (significant reduction in pruritus) [2] [s]	positive result (reduction in pruritus) ([2]; two patients (neurodermatitis, insect bite))	patients who experienced drowsiness ([1]; 2 weeks)	patients who experienced transient tachycardia ([1]; 2 weeks)
CN1CCC(=C2c3ccccc3C=Cc3ccccc32)CC1 [cyproheptadine]	5/15	–	–	–	–
Cl.Cl.OCCOCCN1CCN(C(c2ccccc2)c2ccc(Cl)cc2)CC1 (centres unmarked) [hydroxyzine, 1-(p-chlorobenzhydryl) 4-[2-(2-hydroxyethoxy)-ethyl] piperazine dihydrochloride]	–	60	significant reduction in pruritus	13/15	4/15
